Consider 27 compounds from patent US20110190503A1, “Thiazolopyridin-2-yloxy-phenyl and thiazolopyrazin-2-yloxy-phenyl amines as modulators of leukotriene A4 hydrolase” (Janssen Pharmaceutical NV, priority 2008, published 2011).

What is called IC50 is the point on the concentration scale where inhibition reaches its midpoint.

In this assay the target is T1, recombinant human LTA4 hydrolase (rhLTA4H) (Homo sapiens, UniProt P09960).
T1 construct: made in house; host or cells: Spodoptera frugiperda (Sf-9) cells, recombinant baculovirus (pFastBac1)
T1 sequence (P09960 1-611): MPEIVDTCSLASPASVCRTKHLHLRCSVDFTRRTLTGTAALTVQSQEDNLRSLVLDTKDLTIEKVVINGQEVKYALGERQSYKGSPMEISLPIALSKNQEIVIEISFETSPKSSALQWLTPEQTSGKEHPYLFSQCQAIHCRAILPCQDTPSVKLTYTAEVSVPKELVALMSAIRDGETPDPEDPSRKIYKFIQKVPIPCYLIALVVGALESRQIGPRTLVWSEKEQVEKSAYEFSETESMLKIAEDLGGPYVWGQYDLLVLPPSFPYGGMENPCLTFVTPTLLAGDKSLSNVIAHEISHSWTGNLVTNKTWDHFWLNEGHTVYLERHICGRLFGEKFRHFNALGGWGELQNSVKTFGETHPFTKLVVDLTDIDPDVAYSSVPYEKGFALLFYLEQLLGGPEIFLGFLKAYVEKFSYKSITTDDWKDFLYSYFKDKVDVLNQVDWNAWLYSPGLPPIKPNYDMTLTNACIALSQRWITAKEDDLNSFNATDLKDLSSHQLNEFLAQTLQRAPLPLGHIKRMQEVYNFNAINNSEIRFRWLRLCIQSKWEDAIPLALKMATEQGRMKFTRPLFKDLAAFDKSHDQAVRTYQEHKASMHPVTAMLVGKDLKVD
Briefly: Recombinant human LTA4 hydrolase assay for LTA4 hydrolase inhibitor activity. The format is biochemical. To be noted: rhLTA4H, LTA4 substrate, LTB4 by immunoassay; single determination or average; read-out: IC50. Summed up: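 LTB4 formed from LTA4 substrate (free acid from the methyl ester) was quantified by enzyme immunoassay after a 30 min rt reaction. Enzyme was 10 ng Sf-9-expressed human LTA4 hydrolase, pre-incubated 10 min with compound.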

With `NC(=O)N1C[C@@H]2C[C@H]1CN2CCc1ccc(Oc2nc3cccnc3s2)cc1` [Example 78, (1S,4S)-5-{2-[4-([1,3]Thiazolo[5,4-b]pyridin-2-yloxy)phenyl]ethyl}-2,5-diazabicyclo[2.2.1]heptane-2-carboxamide], the concentration for half-maximal inhibition (IC50) was 0.16 µM.

For `CS(=O)(=O)N1CC2CN(Cc3ccc(Oc4nc5ncc(Cl)cc5s4)cc3)CC2C1` (stereo not drawn) [Example 188, 6-Chloro-2-[(4-{[5-(methylsulfonyl)hexahydropyrrolo[3,4-c]pyrrol-2(1H)-yl]methyl}phenyl)oxy][1,3]thiazolo[4,5-b]pyridine], the half-inhibitory concentration (IC50) came out at 0.05 µM.

With `CC(=O)N1[C@@H]2CC[C@H]1C[C@H](NCc1ccc(Oc3nc4ncc(C)cc4s3)cc1)C2` [Example 181, meso-(3-exo)-8-Acetyl-N-({4-[(6-methyl[1,3]thiazolo[4,5-b]pyridin-2-yl)oxy]phenyl}methyl)-8-azabicyclo[3.2.1]octan-3-amine], the 50% inhibitory concentration (IC50) was 0.332 µM.

In the case of `OC1(c2ccccc2)CCN(CCc2ccc(Oc3nc4ncccc4s3)cc2)CC1` [Example 62, 4-Phenyl-1-{2-[4-([1,3]thiazolo[4,5-b]pyridin-2-yloxy)phenyl]ethyl}piperidin-4-ol], the concentration for half-maximal inhibition (IC50) is 0.0083 µM.

In the case of `OC1(c2ccc(Cl)cc2)CCN(CCOc2ccc(Oc3nc4nccnc4s3)cc2)CC1` [Example 25, 4-(4-Chlorophenyl)-1-{2-[4-([1,3]thiazolo[4,5-b]pyrazin-2-yloxy)phenoxy]ethyl}piperidin-4-ol], the IC50 was 0.16 µM.

For `O=C(c1cccs1)N1CCN(Cc2ccc(Oc3nc4ncc(Cl)cc4s3)cc2)CC1` [Example 187, 6-Chloro-2-[(4-{[4-(2-thienylcarbonyl)piperazin-1-yl]methyl}phenyl)oxy][1,3]thiazolo[4,5-b]pyridine], the IC50 was found to be 0.29 µM.

As to `c1cc2nc(Oc3ccc(CN4CCCCC4)cc3)sc2cn1` [Example 114, 2-[4-(Piperidin-1-ylmethyl)phenoxy][1,3]thiazolo[5,4-c]pyridine], the IC50 was determined as 0.68 µM.

For `c1cnc(N2CCN(Cc3ccc(Oc4nc5nccnc5s4)cc3)CC2)nc1` [Example 167, 2-({4-[(4-Pyrimidin-2-ylpiperazin-1-yl)methyl]phenyl}oxy)[1,3]thiazolo[4,5-b]pyrazine], the IC50 was 0.432 µM.

In the case of `NC(=O)N1C[C@@H]2C[C@H]1CN2Cc1ccc(Oc2nc3ncc(Cl)cc3s2)cc1` [Example 193, (1S,4S)-5-({4-[(6-Chloro[1,3]thiazolo[4,5-b]pyridin-2-yl)oxy]phenyl}methyl)-2,5-diazabicyclo[2.2.1]heptane-2-carboxamide], the half-maximal inhibitory concentration (IC50) stood at 0.058 µM.

As for `Cc1ccnc2nc(Oc3ccc(CN4C[C@H]5CC[C@@H](C4)N5C(N)=O)cc3)sc12` [Example 203, meso-3-{4-[(7-Methyl[1,3]thiazolo[4,5-b]pyridin-2-yl)oxy]benzyl}-3,8-diazabicyclo[3.2.1]octane-8-carboxamide], the IC50 is 0.679 µM.

As for `CC(=O)N1[C@@H]2CC[C@H]1CN(CCc1ccc(Oc3nc4ncccc4s3)cc1)C2` [Example 212, meso-2-(4-{2-[8-Acetyl-3,8-diazabicyclo[3.2.1]oct-3-yl]ethyl}phenoxy)[1,3]thiazolo[4,5-b]pyridine], the half-inhibitory concentration (IC50) turned out to be 0.018 µM.

Consider `NC(=O)N1[C@@H]2CC[C@H]1CN(Cc1ccc(Oc3nc4cnccc4s3)cc1)C2` [Example 202, meso-3-[4-([1,3]Thiazolo[4,5-c]pyridin-2-yloxy)benzyl]-3,8-diazabicyclo[3.2.1]octane-8-carboxamide], for which the IC50 was around 9 µM.

As for `CC(=O)N1C[C@@H]2C[C@H]1CN2CCc1ccc(Oc2nc3cccnc3s2)cc1` [Example 51, 2-(4-{2-[(1S,4S)-5-Acetyl-2,5-diazabicyclo[2.2.1]hept-2-yl]ethyl}phenoxy)[1,3]thiazolo[5,4-b]pyridine], the concentration for half-maximal inhibition (IC50) worked out at 0.11 µM.

Regarding `CS(=O)(=O)N[C@@H]1C[C@H]2CC[C@@H](C1)N2Cc1ccc(Oc2nc3ccncc3s2)cc1` [Example 249, meso-N-{(3-exo)-8-[4-([1,3]Thiazolo[5,4-c]pyridin-2-yloxy)benzyl]-8-azabicyclo[3.2.1]oct-3-yl}methanesulfonamide], the IC50 is 0.141 µM.

As to `OCCCN(CCOc1ccc(Oc2nc3ccncc3s2)cc1)CC1CC1` [Example 156, 3-[(Cyclopropylmethyl){2-[4-([1,3]thiazolo[5,4-c]pyridin-2-yloxy)phenoxy]ethyl}amino]propan-1-ol], the IC50 is 0.494 µM.

Consider `O=C(O)C1CCN(CCOc2ccc(Oc3nc4cccnc4s3)cc2)CC1` [Example 44, 1-{2-[4-([1,3]Thiazolo[5,4-b]pyridin-2-yloxy)phenoxy]ethyl}piperidine-4-carboxylic acid], for which the IC50 turned out to be 0.66 µM.

As to `c1cnc2sc(Oc3ccc(CCN4CCCCCC4)cc3)nc2n1` [Example 179, 2-{[4-(2-Azepan-1-ylethyl)phenyl]oxy}[1,3]thiazolo[4,5-b]pyrazine], the concentration for half-maximal inhibition (IC50) was 0.038 µM.

Take `O=C1CCCN1C1CCN(CCc2ccc(Oc3nc4cccnc4s3)cc2)CC1` [Example 68, 1-(1-{2-[4-([1,3]Thiazolo[5,4-b]pyridin-2-yloxy)phenyl]ethyl}piperidin-4-yl)pyrrolidin-2-one]: the IC50 worked out at 0.28 µM.

As for `CN(C)C1CCN(Cc2ccc(Oc3nc4ncccc4s3)cc2)CC1` [Example 259, N,N-Dimethyl-1-[4-([1,3]thiazolo[4,5-b]pyridin-2-yloxy)benzyl]piperidin-4-amine], the IC50 was determined as 0.14 µM.

In the case of `OCC1CN(Cc2ccc(Oc3nc4ncccc4s3)cc2)CCO1` (stereo not drawn) [Example 82, {4-[4-([1,3]Thiazolo[4,5-b]pyridin-2-yloxy)benzyl]morpholin-2-yl}methanol], the half-maximal inhibitory concentration (IC50) is 0.14 µM.

For the compound `CN1CCN(C(=O)C2CCN(Cc3ccc(Oc4nc5ccncc5s4)cc3)CC2)CC1` [Example 227, 2-[4-({4-[(4-Methylpiperazin-1-yl)carbonyl]piperidin-1-yl}methyl)phenoxy][1,3]thiazolo[5,4-c]pyridine], the IC50 was determined as 0.748 µM.

On to `CN1CCCN(CCOc2ccc(Oc3nc4cccnc4s3)cc2)CC1` [Example 152, 2-{4-[2-(4-Methyl-1,4-diazepan-1-yl)ethoxy]phenoxy}[1,3]thiazolo[5,4-b]pyridine], for which the IC50 was 0.498 µM.

As to `CNC(=O)C1CCN(CCOc2ccc(Oc3nc4nccc(C)c4s3)cc2)CC1` [Example 165, N-Methyl-1-[2-({4-[(7-methyl[1,3]thiazolo[4,5-b]pyridin-2-yl)oxy]phenyl}oxy)ethyl]piperidine-4-carboxamide], the half-maximal inhibitory concentration (IC50) was 0.053 µM.

Regarding `c1cc(C2CCN(Cc3ccc(Oc4nc5cnccc5s4)cc3)CC2)ccn1` [Example 190, 2-({4-[(4-Pyridin-4-ylpiperidin-1-yl)methyl]phenyl}oxy)[1,3]thiazolo[4,5-c]pyridine], the half-maximal inhibitory concentration (IC50) was 0.455 µM.

Turning to `CN(CCCN1CCCC1=O)CCOc1ccc(Oc2nc3ncc(Cl)cc3s2)cc1` [Example 155, 1-{3-[(2-{4-[(6-Chloro[1,3]thiazolo[4,5-b]pyridin-2-yl)oxy]phenoxy}ethyl)(methyl)amino]propyl}pyrrolidin-2-one], the IC50 stood at 0.329 µM.

In the case of `O=C1CCN(CCc2ccc(Oc3nc4nccnc4s3)cc2)CCN1` [Example 177, 1-{2-[4-([1,3]Thiazolo[4,5-b]pyrazin-2-yloxy)phenyl]ethyl}-1,4-diazepan-5-one], the half-maximal inhibitory concentration (IC50) came to 0.624 µM.

As for `CC(=O)N1CCN(CCc2ccc(Oc3nc4ccncc4s3)cc2)CC1` [Example 176, 2-{4-[2-(4-Acetylpiperazin-1-yl)ethyl]phenoxy}[1,3]thiazolo[5,4-c]pyridine], the IC50 is 0.835 µM.
